Test results as given in patent US20220233563A1, “Methods of Treatments Based Upon Anthracycline Responsiveness” (The Board of Trustees of the Leland Stanford Junior …, priority 2019, published 2022).

Key:
[1] = test system: HCC1954 breast cancer cell line; assay: Cell viability after drug treatment of HCC1954 cells with inducible shRNA knockdown of KAT6B; type: cell-based; settings: three inducible shRNA constructs against KAT6B in HCC1954; FIG. 31
Experimental: A similar experiment was performed by knocking down KAT6B expression to evaluate the role of KAT6B expression in anthracycline sensitivity. Three inducible shRNA knockdown constructs were used to lower the levels of KAT6B protein in the HCC1954 breast cancer cell line.

[2] = test system: HCC1954 breast cancer cell line; assay: Cell viability after drug treatment of HCC1954 cells with inducible shRNA knockdown of KDM4B; type: cell-based; settings: KDM4B knocked down four days, then drug for three days; normalized to DMSO vehicle-only controls; FIG. 26
Experimental: To functionally evaluate the role of KDM4B expression in anthracycline sensitivity, three inducible shRNA knockdown constructs were used to lower the levels of KDM4B protein in the HCC1954 breast cancer cell line (FIG. 24). […] The expression KDM4B was knocked down for four days, and then the cells were treated with either doxorubicin, etoposide (a non-anthracycline TOP2 inhibitor) or paclitaxel (a taxane commonly used to treat breast cancer that functions via tubulin inhibition) for three days, after which cell viability was measured (FIG. 25). All experiments were normalized to DMSO vehicle-only controls and were performed under both induced and non-induced conditions.

[3] = test system: HCC1954 breast cancer cell line; settings: unmodified HCC1954, ER-/HER2+, not TOP2A amplified; cited from earlier work

Compound | change in drug sensitivity (cell viability) upon knockdown of KAT6B [1] | change in drug sensitivity (cell viability) upon knockdown of KDM4B [2] | doxorubicin sensitivity of the HCC1954 cell line [3]
COc1cc([C@@H]2c3cc4c(cc3[C@@H](O[C@@H]3O[C@@H]5CO[C@@H](C)O[C@H]5[C@H](O)[C@H]3O)[C@H]3COC(=O)[C@H]23)OCO4)cc(OC)c1O [etoposide] | induced resistance | induced resistance | –
COc1cccc2c1C(=O)c1c(O)c3c(c(O)c1C2=O)C[C@@](O)(C(=O)CO)C[C@@H]3O[C@H]1C[C@H](N)[C@H](O)[C@H](C)O1 [doxorubicin] | induced resistance | induced resistance | doxorubicin-sensitive
CC(=O)O[C@H]1C(=O)[C@@]2(C)[C@H]([C@H](OC(=O)c3ccccc3)[C@]3(O)C[C@H](OC(=O)[C@H](O)[C@@H](NC(=O)c4ccccc4)c4ccccc4)C(C)=C1C3(C)C)[C@]1(OC(C)=O)CO[C@@H]1C[C@@H]2O [paclitaxel] | remained sensitive | remained sensitive | –
